Tested on: plasma aldosterone and corticosterone levels
Experiment: Suppression of plasma aldosterone and corticosterone levels in ACTH-stimulated rats
Type: in vivo, Wistar rats
Details: rat plasma, 4 mg/kg p.o., 2 h after dosing vs 1 h before dosing
Method: The aldosterone- and corticosterone-suppressing activity of herein described compounds may be assessed with the following in vivo protocol.
Adult male Wistar rats weighing between 250 and 350 grams are kept under the usual 12 hour light and 12 hour dark conditions at a temperature of 23° C.±2° C. On the first day of the experiment, the animals receive a subcutaneous injection of a depot ACTH product in a dose of 1.0 mg/kg weight (SYNACTHEN-Depot, Novartis, Basel, CH) 16 hours prior to the administration of a test compound. […] An alternative method to stimulate aldosterone secretion consists in subjecting rats to a low salt diet for 48 hours and applying the diuretic furosemide at 10 mg/kg by subcutaneous or intraperitoneal administration 16 hours, respectively 2 hours prior to the start of the experiment. On the second day of the experiment, the animals are divided into test groups of 5 animals and subjected to a first bleed 1 hour prior to the administration of test compound. Subsequently, and 16 hours after the injection of the ACTH product, the animals receive either vehicle or test compound dissolved in vehicle in a variable dose range from 0.02 to 20 mg/kg by oral gavage. The animals are bled two more times from the vena subclavia under isoflurane anaesthesia 2 and 6 hours after dosing. The blood is collected in heparin-treated tubes. The plasma samples are obtained by centrifugation and stored at −20° C. An alternative method to bleed animals time-dependently consists in using animals that are chronically carotid catheterized which allows the periodical sampling of up to 0.2 ml of blood using an AccuSampler (DiLab Europe, Lund, Sweden). The blood sampling with the AccuSampler may occur 1 hour prior to the administration of a test compound and 2, 4, 6, 8, 12, 16 and 24 hours thereafter. The blood samples are anticoagulated with heparin and centrifuged. The aldosterone and corticosterone concentrations of the plasma samples can be determined with a radioimmunoassay as described above for the in vitro test systems.
The selective suppression of plasma steroid levels as for instance aldosterone in comparison to corticosterone may serve as a measure for in vivo bioavailability and pharmacodynamic enzyme inhibitory activity of the herein described compounds. The evaluation of the data may occur relative to the application of vehicle or quantitatively by determination of the area under the curve (AUC).

SMILES | Aldosterone levels (% change at 2 h) | Corticosterone levels (% change at 2 h)
Fc1ccc(C2COCc3cncn32)cc1 (stereo not shown) [Example 14, 5-(4-Fluorophenyl)-5,6-dihydro-8H-imidazo[5,1-c][1,4]oxazine] | −58 % change | −7 % change
CC(=O)c1ccc(C2COCc3cncn32)cc1 (stereo not shown) [Example 16] | −67 % change | −9 % change
